Assay results taken from patent publication US20240101602A1, “ANTIMICROBIAL PEPTIDES AND METHOD OF PREVENTING OR TREATING INFECTION BY USING THE SAME” (priority 2020, published 2024).

Tests used:
Erwinia chrysanthemi = assay type: cell-based
Procedure, shortened: (§1)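 Bacteria were grown 4–6 h, set to OD600=0.08 in rich or minimal medium, then diluted 100-fold. This inoculum was mixed 1:1 with 2-fold serial peptide dilutions and incubated static at optimal temperature. MIC was read from growth and MBC taken as the lowest concentration giving no colonies.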

[1] = tested on: Pectobacterium carotovorum subsp. carotovorum; assay type: cell-based
Procedure, shortened: as §1

[2] = tested on: Xanthomonas oryzae pv. oryzae strain Xoo28; conditions: Xoo Xoo28; Table 7

Ac-WKKLKKLLKKL-NH2 [pepD3]
MIC (Erwinia chrysanthemi): 32.0 µg/mL | MBC/MFC (Erwinia chrysanthemi; Ech, optimal minimal medium, crude peptides (Table 9)): — (“—” indicates no antimicrobial activity being detected at the highest peptide concentration (32 μg/mL) tested in this study.) | MBC [1]: 14.3 µg/mL | MBC/MFC [1]: 13.3 µg/mL | MBC [2]: 4.4 µg/mL | MIC [2]: 3.6 µg/mL
